In this assay the target is T1, ITK (Homo sapiens, UniProt Q08881).
T1 sequence (Q08881 1-620): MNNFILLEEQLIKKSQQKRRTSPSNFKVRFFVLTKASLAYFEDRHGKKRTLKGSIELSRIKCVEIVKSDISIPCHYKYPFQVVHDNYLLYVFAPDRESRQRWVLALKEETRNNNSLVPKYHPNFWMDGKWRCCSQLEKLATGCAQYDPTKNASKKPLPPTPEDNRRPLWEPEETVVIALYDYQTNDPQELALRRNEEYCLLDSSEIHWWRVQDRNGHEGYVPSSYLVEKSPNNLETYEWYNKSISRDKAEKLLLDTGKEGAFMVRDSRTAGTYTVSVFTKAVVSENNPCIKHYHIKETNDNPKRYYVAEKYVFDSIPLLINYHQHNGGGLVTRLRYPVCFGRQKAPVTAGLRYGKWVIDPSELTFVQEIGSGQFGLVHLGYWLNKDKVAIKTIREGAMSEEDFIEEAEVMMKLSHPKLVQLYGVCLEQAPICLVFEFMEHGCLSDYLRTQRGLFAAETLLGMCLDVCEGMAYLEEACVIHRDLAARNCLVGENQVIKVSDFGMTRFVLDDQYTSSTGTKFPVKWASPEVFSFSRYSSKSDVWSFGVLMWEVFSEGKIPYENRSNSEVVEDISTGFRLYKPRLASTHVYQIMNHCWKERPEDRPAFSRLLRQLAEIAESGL
Type of assay: cell-based. The conditions noted are these: Jurkat, read-out: % inhibition at 1 μM.

Where only a bound is given, the exact number is not on record here.

One may read the inhibition as how much of the control response was suppressed.

As to `C=CC(=O)N1CCC[C@@H](n2nc(-c3ccc(Oc4ccccc4)cc3)c3c(N)ncnc32)C1` [ibrutinib], the inhibition at 1 µM was over 90%.

For the origin of these results see publication PMC5491371 (Clinical cancer research : an official journal of the …, 2016).
